Data as given in patent publication US6432968B1 (Aventis Pharma Deutschland GmbH, priority 1994, dated 2002).

Test system: Human peripheral blood mononuclear cells (PBMC)
Assay: Mixed human lymphocyte reaction (MLR) assay
Type: cell-based
Details: immunosuppressant alone, 0.5 nM, read-out: inhibition of lymphocyte proliferation
Description: coculture of lymphocytes of different […] (MLR=mixed lymphocyte reaction): lymphocytes containing different antigens of the HLA-DR type (=allogens) activate each other non-specifically.
100 μl of those PBMC are mixed with 100 μl of irradiated PMBC (1×10^6 cells/ml) in a well of a microtiter plate. The test substances, alone or in combination, are likewise added to the PBMC. The plates are incubated for 5 days at 37° C. in a moist atmosphere which contains 5% CO2. Then 1 μCi of ^3H-thymidine is added to the cells and they are incubated under the abovementioned conditions for a further 8 hours. The cells are then collected on glass fiber filters and the incorporated radioactivity is determined using a beta counter.
Inhibition is given in percent and referred to uninhibited controls (which correspond to 0%).
Inhibition is given in percent and referred to uninhibited controls (which correspond to 0%)

SMILES	inhibition at 0.0005 µM [%]
C=CC[C@@H]1/C=C(\C)C[C@H](C)C[C@H](OC)[C@H]2O[C@@](O)(C(=O)C(=O)N3CCCC[C@H]3C(=O)O[C@H](/C(C)=C/[C@@H]3CC[C@@H](O)[C@H](OC)C3)[C@H](C)[C@@H](O)CC1=O)[C@H](C)C[C@@H]2OC [FK 506, Tacrolimus, reference compound]	30
CO[C@H]1C[C@@H]2CC[C@@H](C)[C@@](O)(O2)C(=O)C(=O)N2CCCC[C@H]2C(=O)O[C@H]([C@H](C)C[C@@H]2CC[C@@H](O)[C@H](OC)C2)CC(=O)[C@H](C)/C=C(\C)[C@@H](O)[C@@H](OC)C(=O)[C@H](C)C[C@H](C)/C=C/C=C/C=C/1C [RPM, rapamycin, reference compound]	35

Same assay, conditions: read-out: % inhibition of proliferation (100 μM), 100 μM, referred to uninhibited controls (0%)

SMILES	inhibition at 100 µM [%]
CCCCCCn1c(=O)c2c(ncn2C)n(C)c1=O [Compound 14, 1-hexyl-3,7-dimethylxanthine]	85
CCCCn1cnc2c1c(=O)n(CCCCC(C)(C)O)c(=O)n2C [Compound 8, 1-(5-hydroxy-5-methylhexyl)-3-methyl-7-butylxanthine]	91
CCCn1cnc2c1c(=O)n(CCCCC(C)O)c(=O)n2C (centres unmarked) [Compound 3, 1-(5-hydroxyhexyl)-3-methyl-7-propyl-xanthine]	83
CCCCn1cnc2c1c(=O)n(CCCCCC(C)(C)O)c(=O)n2CC [Compound 11, 7-butyl-3-ethyl-1-(6-hydroxy-6-methylheptyl)-xanthine]	94
CCOCn1cnc2c1c(=O)n(CCCCC(C)(C)O)c(=O)n2C [Compound 9, 7-ethoxymethyl-1-(5-hydroxy-5-methylhexyl)-3-methylxanthine]	61
Cn1c(=O)n(CCCCC(C)(C)O)c(=O)c2c1ncn2CC1CC1 [Compound 12, 7-cyclopropylmethyl-1-(5-hydroxy-5-methylhexyl)-3-methylxanthine]	85
